Data from patent US20240050463A1, “THERAPEUTIC COMPOSITIONS AND METHODS FOR TREATING HEPATITIS B” (ARBUTUS BIOPHARMA CORPORATION, priority 2016, published 2024).

Tests used:
hepatitis B virus (HBV) [1] = experiment: Serum HBsAg in AAV1.2 mouse model of HBV, enzyme immunoassay; format: in vivo, C57/Bl6 mice; details: D0 (pre-treatment); Compound 20 3.0 mg/kg oral twice daily Days 0-28; HBV siRNA 0.3 mg/kg IV Day 0
Experimental: (§1) This viral vector contains a 1.2-fold overlength copy of the HBV genome and expresses HBV surface antigen (HBsAg) amongst other HBV products. Serum HBsAg expression in mice was monitored using an enzyme immunoassay. Animals were sorted (randomized) into groups based on serum HBsAg levels such that a) all animals were confirmed to express HBsAg and b) HBsAg group means were similar to each other prior to initiation of treatments.
Animals were treated with Compound 20 as follows: Starting on Day 0, a 3.0 mg/kg dosage of Compound 20 was administered orally to animals on a twice-daily frequency for a total of 56 doses between Days 0 and 28. Compound 20 was dissolved in a co-solvent formation for administration. Negative control animals were administered either the co-solvent formulation alone, or were not treated with any test article. Animals were treated with lipid nanoparticle (LNP)-encapsulated HBV-targeting siRNAs as follows: On Day 0, an amount of test article equivalent to 0.3 mg/kg siRNA was administered intravenously. The HBsAg expression levels for each treatment were compared against the Day 0 (pre-dose) values for that group.
The effect of these treatments was determined by collecting blood on Days 0 (pre-treatment), 7, 14, and 28 and analyzing it for serum HBsAg content.

[2] = tested on: HBeAg, D type HBV in primary human hepatocytes (PHH); experiment: microbe, parasite or virus in culture; format: cell-based
Experimental: (§2) The mouse liver perfusion was applied to isolate PHHs. The isolated hepatocytes were further purified by Percoll. The cells were resuspended with culture media and seeded into the 96-well plates (6×10^4 cell/well) or 48-well plates (1.2×10^5 cell/well). The PHHs were infected with a D type HBV one day post seeding (day 1).
(§3) On day 2, the test compounds were diluted and added into the cell culture plates. The culture media containing the compounds were refreshed every other day. The cell culture supernatants were collected on day 8 for the HBV DNA and antigen determinations.
(§4) The compounds were tested at 7 concentrations, 3-fold dilution, in triplicate.
(§5) Two compounds were tested at 5×5 matrix, in triplicate plates.
(§6) HBsAg/HBeAg in the culture supernatants harvested on days 8 were measured by the HBsAg/HBeAg ELISA kit (Autobio) according to the manual. The samples were diluted with PBS to get the signal in the range of the standard curve. The inhibition rates were calculated with the formula below. The combination effect was analyzed by the MacSynergy software.
% Inh. HBeAg=[1−HBeAg quantity of sample/HBV quantity of DMSO control]×100.

[3] = tested on: D type HBV in primary human hepatocytes (PHH); experiment: HBV DNA in culture supernatants of HBV-infected primary human hepatocytes (qPCR), MacSynergy; format: cell-based; details: for AVERAGE % INHIBITION, HBV DNA: COMPOUND 3 0.00 nM; for AVERAGE % INHIBITION: HBV DNA, COMPOUND 22 0.00 nM
Experimental: as §2, §3, §4, §5
DNA in the culture supernatants harvested on days 8 were isolated with QIAamp 96 DNA Blood Kit (Qiagen-51161). For each sample, 100 μl of the culture supernatants was used to extract DNA. The DNA was eluted with 100 μl, 150 μl or 180 μl of AE. HBV DNA in the culture supernatants was quantified by qPCR. The combination effect was analyzed by the MacSynergy software. The primers are described below.

[4] = tested on: HBsAg, D type HBV in primary human hepatocytes (PHH); experiment: microbe, parasite or virus in culture; format: cell-based; details: for AVERAGE % INHIBITION, HBsAg: COMPOUND 3 0.00 nM; for AVERAGE % INHIBITION: HBsAg, COMPOUND 22 0.00 nM
Experimental: as §2, §3, §4, §5, §6
% Inh. HBsAg=[1−HBsAg quantity of sample/HBV quantity of DMSO control]×100.

[5] = tested on: HBV rcDNA in HepDE19 cells; experiment: Inhibition of rcDNA in HepDE19 cells (bDNA assay), checkerboard, MacSynergy II; format: cell-based, HBV (human hepatoma cell line); details: Hepatitis B virus, HepDE19, read-out: ADDITIVE INHIBITION
Experimental: In vitro combination studies were conducted using the method of Prichard and Shipman (Prichard M N, and Shipman C Jr., Antiviral Research, 1990, 14(4-5), 181-205; and Prichard M N, et. al., MacSynergy II). HepDE19 cell culture system is a HepG2 (human hepatocarcinoma) derived cell line that supports HBV DNA replication and cccDNA formation in a tetracycline (Tet)-regulated manner and produces HBV rcDNA and a detectable reporter molecule dependent on the production and maintenance of cccDNA (Guo et al 2007. J. Virol 81:12472-12484). HepDE19 (50,000 cells/well) were plated in 96 well collagen-coated tissue-culture treated microtiter plates in DMEM/F12 medium supplemented with 10% fetal bovine serum, 1% penicillin-streptomycin and 1 μg/ml tetracycline and incubated in a humidified incubator at 37° C. and 5% CO2 overnight. Next day, the cells were switched to fresh medium without tetracycline and incubated for 4 hrs at 37° C. and 5% CO2. […] The two inhibitors were tested both singly as well as in combinations in a checkerboard fashion such that each concentration of inhibitor A was combined with each concentration of inhibitor B to determine their combination effects on inhibition of rcDNA production. Following a 7 day-incubation of cells with compound combinations, the level of rcDNA present in the inhibitor-treated wells was measured using a Quantigene 2.0 bDNA assay kit (Affymetrix, Santa Clara, CA) with HBV specific custom probe set and manufacturers instructions. […] The RLU data from the single compound treated cells were analyzed using XL-Fit module in Microsoft Excel to determine EC50 values using a 4-parameter curve fitting algorithm. Concurrently, the effect of compounds on cell viability was assessed using replicate plates, plated at a density of 5,000 cells/well and incubated for 4 days, to determine the ATP content as a measure of cell viability using the cell-titer glo reagent (CTG; Promega Corporation, Madison, WI) as per manufacturer's instructions.
In vitro combination studies were conducted using the method of Prichard and Shipman (Prichard M N, Shipman C, Jr., Antiviral Res, 14, 181-205 (1990)). The HepDE19 cell line was developed as described in Guo et al. (Guo et al., J Virol, 81, 12472-12484 (2007)). It is a human hepatoma cell line stably transfected with the HBV genome, and which can express HBV pregenomic RNA and support HBV rcDNA (relaxed circular DNA) synthesis in a tetracycline-regulated manner. HepDE19 cells were plated in 96 well tissue-culture treated microtiter plates in DMEM/F12 medium supplemented with 10% fetal bovine serum+1% penicillin-streptomycin without tetracycline and incubated in a humidified incubator at 37° C. and 5% CO2 overnight. […] The two inhibitors were tested both singly as well as in combinations in a checkerboard fashion such that each concentration of inhibitor A was combined with each concentration of inhibitor B to determine their combination effects on inhibition of rcDNA production. Following a 48 hour-incubation, the level of rcDNA present in the inhibitor-treated wells was measured using a bDNA assay (Affymetrix) with HBV specific custom probe set and manufacturers instructions. […] Concurrently, the effect of inhibitor combinations on cell viability was assessed using replicate plates that were used to determine the ATP content as a measure of cell viability using the Cell-TiterGlo reagent (Promega) as per manufacturer's instructions.
In vitro combination studies were conducted using the method of Prichard and Shipman (1990) (Prichard M N, Shipman C, Jr. 1990. A three-dimensional model to analyze drug-drug interactions. Antiviral Res 14:181-205 AND Prichard M N. 1992. MacSynergy II, University of Michigan).

hepatitis B virus (HBV) [6] = experiment: Serum HBsAg in mouse model of HBV (pAAV/HBV1.2 hydrodynamic injection), enzyme immunoassay; format: in vivo, C3H/HeN mice; details: HBV siRNA 1 mg/kg IV Days 0, 7, 14, poly(I:C) 20 μg HDI Day 0, mean ± SEM
Description: A mouse model of hepatitis B virus (HBV) was used to assess the anti-HBV effects of an immune stimulant and HBV-targeting siRNAs, both as independent treatments and in combination with each other.
as §1, with “This plasmid carries” for “This viral vector contains”, “of a” for “of the”
Animals were treated with immune stimulant as follows: On Day 0, 20 micrograms of high molecular weight polyinosinic:poly cytidylic acid (poly(I:C)) was administered via HDI. Animals were treated with lipid nanoparticle (LNP)-encapsulated HBV-targeting siRNAs as follows: On each of Days 0, 7 & 14, an amount of test article equivalent to 1 mg/kg siRNA was administered intravenously. A negative control group was included as the HBsAg expression level is not completely stable in this mouse model of HBV; the absolute concentration of serum HBsAg generally declines over time in individual animals.
The effect of the treatments was determined by collecting a small amount of blood on Days 0 (pre-treatment), 3, 7, 14 & 21 and analyzing it for serum HBsAg content. Samples were diluted as appropriate to generate values within the assay range of quantitation where possible. Individual values falling below the lower limit of quantitation (LLOQ) were set as one-half the LLOQ.

[7] = Hepatitis B virus, Hepatocyte, read-out: AVERAGE % INHIBITION (HBeAg)
[8] = Hepatitis B virus, Hepatocyte, read-out: AVERAGE % INHIBITION (HBV DNA)
[9] = Hepatitis B virus, Hepatocyte, read-out: AVERAGE % INHIBITION (HBsAg)

Molecule: COCCCOc1cc2c(cc1OC)-c1cc(=O)c(C(=O)O)cn1[C@H](C(C)C)C2 [Compound 20]
- Serum HBsAg, percentage of individual animal pre-treatment baseline value at Day 0 (mean ± SEM) (hepatitis B virus (HBV) [1]): 100 ± 0%

Molecule: COCCCOc1cc2c(cc1OC)-c1cc(=O)c(C(=O)O)cn1C(C(C)C)C2 (stereo not drawn) [Compound 25]
- AVERAGE % INHIBITION, HBeAg ([2]; COMPOUND 25 […], COMPOUND 3 0.00 nM): 4.51%
- AVERAGE % INHIBITION ([2]; HBeAg, COMPOUND 25 […], COMPOUND 22 0.00 nM): 14.98%
- AVERAGE % INHIBITION, HBV DNA ([3]; COMPOUND 25 0.12 nM): −20.98%
- AVERAGE % INHIBITION, HBV DNA ([3]; COMPOUND 25 0.37 nM): −51.8%
- AVERAGE % INHIBITION, HBV DNA ([3]; COMPOUND 25 3.33 nM): 15.24%
- AVERAGE % INHIBITION, HBV DNA ([3]; COMPOUND 25 10.00 nM): 28%
- AVERAGE % INHIBITION, HBV DNA ([3]; COMPOUND 25 […]): 5.69%
- AVERAGE % INHIBITION ([3]; COMPOUND 25 0.12 nM): −42.82%
- AVERAGE % INHIBITION ([3]; COMPOUND 25 0.37 nM): −46.48%
- AVERAGE % INHIBITION ([3]; COMPOUND 25 3.33 nM): 16.41%
- AVERAGE % INHIBITION ([3]; COMPOUND 25 10.00 nM): 37.39%
- AVERAGE % INHIBITION ([3]; COMPOUND 25 […]): −19.21%
- AVERAGE % INHIBITION, HBsAg ([4]; COMPOUND 25 0.37 nM): −5.09%
- AVERAGE % INHIBITION, HBsAg ([4]; COMPOUND 25 […]): −3.18%
- AVERAGE % INHIBITION ([4]; COMPOUND 25 0.37 nM): 12.93%
- AVERAGE % INHIBITION ([4]; COMPOUND 25 […]): 26.4%

Molecule: CC(C)OC(=O)[C@H](C)N[P@](=O)(CO[C@H](C)Cn1cnc2c(N)ncnc21)Oc1ccccc1 [TAF, tenofovir alafenamide]
- inhibition at 50 pM [2, 7]: 1.17%
- inhibition at 0.00014 µM [2, 7]: -2.78%
- inhibition at 0.00041 µM [2, 7]: 1.76%
- inhibition at 0.00123 µM [2, 7]: 9.91%
- inhibition at 0.0037 µM [2, 7]: 11.9%
- inhibition at 0.00012 µM [3, 8]: -2.6%
- inhibition at 0.00037 µM [3, 8]: -1.92%
- inhibition at 0.00333 µM [3, 8]: 40.2%
- inhibition at 0.01 µM [3, 8]: 50.2%
- AVERAGE % INHIBITION, HBV DNA ([3]; TAF 0.05 nM): −8.77%
- AVERAGE % INHIBITION, HBV DNA ([3]; TAF 0.41 nM): 28.78%
- AVERAGE % INHIBITION, HBV DNA ([3]; TAF 1.23 nM): 63.39%
- AVERAGE % INHIBITION, HBV DNA ([3]; TAF 3.70 nM): 78.31%
- inhibition at 0.0007813 µM [5]: -4.76%
- inhibition at 0.0015625 µM [5]: 3.49%
- inhibition at 0.000123457 µM [4, 9]: 29.8%
- inhibition at 0.00037037 µM [4, 9]: 10.8%
- inhibition at 0.00111111 µM [4, 9]: 20.8%
- inhibition at 0.00333333 µM [4, 9]: 9.06%
- inhibition at 0.01 µM [4, 9]: 7.97%

Molecule: polyinosinic:poly cytidylic acid [Poly(I:C)]
- Serum HBsAg as percentage of individual pre-treatment baseline (hepatitis B virus (HBV) [6]; Day 0 (pre-treatment)): 100 ± 0%
- Serum HBsAg as percentage of individual pre-treatment baseline (hepatitis B virus (HBV) [6]; Day 3): 6.1 ± 1.1%
- Serum HBsAg as percentage of individual pre-treatment baseline (hepatitis B virus (HBV) [6]; Day 7): 3.5 ± 1.1%
- Serum HBsAg as percentage of individual pre-treatment baseline (hepatitis B virus (HBV) [6]; Day 14): 3.9 ± 1.4%
- Serum HBsAg as percentage of individual pre-treatment baseline (hepatitis B virus (HBV) [6]; Day 21): 4.7 ± 2.3%
